Source: patent US7754718B2 (priority 2004, dated 2010)

Experiments:
[1] = test system: HBV core protein; assay: HBV core protein expression in HepG2.2.15 cells, Western blot; format: cell-based, Hepatitis B virus; conditions: 6 days
Description: Southern blot hybridization was used to measure the effects of compounds on HBV DNA. Total DNA from cells was extracted using Dneasy Tissue kit (Qiagen Inc. Valencia, Calif.) and separated on a 0.8% agarose gel. Separated DNA was transferred to a Hybond-N+membrane (Amersham Pharmacia Biotech Inc. Piscataway, N.J.). Inhibition of viral DNA replication was assessed by comparison of the replicative HBV DNA from drug-treated versus untreated cultures using hybridization of the membrane with a [α-^32P] dCTP labeled whole HBV DNA probe followed by autoradiography. Quantitative densitometry was performed on a Molecular Dynamics Densitometer (Amersham Pharmacia Biotech Inc. Piscataway, N.J.) using ImageQuaNT image analysis software. The integrated HBV genome was used as the internal control to normalize the amount of DNA loaded. Northern blot hybridization was used to measure the effects of the compounds on HBV RNA. Total intracellular RNA was extracted from cells using Rneasy kit (Qiagen Inc. Valencia, Calif.). RNA was separated in a 1.2% formaldehyde agarose gel and transferred to a Hybond-N+ membrane (Amersham Pharmacia Biotech Inc. Piscataway, N.J.). The membrane was hybridized with the same probe mentioned above at 65° C. followed by autoradiography. GAPDH RNA level was used as an internal control to normalize the amount of RNA loaded. The decrease of HBV core protein expression was assessed by western blot. A cellular crude extract of […] cells was separated on a 12% SDS-PAGE gel and transferred onto a nitrocellulose membrane (Bio-rad Laboratories, Hercules, Calif.). Anti-HBV core antibody (DAKO Corp. Carpinteria, Calif.) and anti rabbit IgG secondary antibody (Sigma. St. Louis, Mo.) were added. Actin protein level was used as the internal control.
Since 3.5 kb HBV transcript was decreased after drug treatment, it was anticipated that this class of compounds would also affect viral protein expression. HepG2.2.15 cells were treated with helioxanthin and 22 for 6 days. […]

[2] = test system: wt (adr) HBV; assay: Extracellular HBV DNA in W10 cells, real-time PCR; format: cell-based; conditions: Hepatitis B virus, 144 h, 6-day treatment, HBV DNA in medium by real-time PCR
From the text: Hep.G2.2.15 is a hepatoblastoma cell line stably transfected with a HBV genome (ayw strain) (Sells et al., 1987, Proc Natl Acad Sci USA. 84 (4):1005-1009). W10, a HepG2 cell line, was transfected with an adr HBV strain (Fu et al., 2000, Antimicrob Agents Chemother 44 (12): 3402-3407; Fu et al., 1999, Biochem Pharmacol. 57 (12): 1351-1359). These cell lines were used to assess the antiviral activity of helioxanthin and 22. Various concentrations of the drugs in minimal essential medium with Earle's salts (MEME) containing 10% fetal bovine serum (FBS) were tested in 6-day-old cultures. The drugs were left in the culture medium for 3 days, then the medium was removed and fresh medium containing the same concentration of the drugs was added. At the end of another 3-day period, the culture medium and cells were harvested to measure the HBV replication level. The Lamivudine resistant cell line DM2 (Fu et al., 2000, Antimicrob Agents Chemother 44 (12): 3402-3407) is also a hepatoblastoma cell line stably transfected with HBV genome (adr strain) which contains the L526M/M550V double mutation. The culture conditions of DM2 are the same as that of HepG.2.2.15.
Quantitative real-time PCR was used to determine the extracellular HBV copy number in the medium of DM2 cells with and without drug treatment. […] Quantification of the copy number was determined by comparing the sample amount to a standard curve generated in each run. […]
W10 and DM2 cells (Fu et al., 2000, Antimicrob Agents Chemother 44 (12): 3402-3407), were used to evaluate the effects of these two compounds on wt HBV (adr strain) and its lamivudine-resistant HBV. […] After a 6-day treatment, the amount of HBV DNA, which was secreted into the medium, was evaluated using real-time PCR (FIG. 3). […] The real-time PCR method was validated by comparing the results of intracellular HBV DNA levels obtained from the Southern blot hybridization analysis to the results from real-time PCR that measured HBV DNA copies in the HepG2.2.15 medium with or without treatment of lamivudine. […]

| SMILES | effect on HBV core protein expression ([1]; listed as helioxanthin) | EC50 [2] [µM] | effect on HBV core protein expression [1] |
| --- | --- | --- | --- |
| O=C1OCc2c1cc1ccc3c(c1c2-c1ccc2c(c1)OCO2)OCO3 [Compound 2, 10-Benzo[1,3]dioxol-5-yl-9H-furo[3′,4′:6,7]naphtho[1,2-d][1,3]dioxol-7-one, reference compound] | decreased in a dose-dependent manner | 0.4 |  |
| Nc1ccn([C@@H]2CS[C@H](CO)O2)c(=O)n1 [Compound 3TC, (−)-(2R,5S)-1-[2-(hydroxymethyl)oxathiolan-5-yl]cytosine] |  | 0.02 ± 0.03 | no effect |
| COc1ccc(-c2c3c(cc4ccc5c(c24)OCO5)C(=O)NC3)cc1OC [Compound 22, 10-(3,4-Dimethoxy-phenyl)-8,9-dihydro-1,3-dioxa-8-aza-dicyclopenta[a,g]naphthalen-7-one] |  | 0.004 | decreased in a dose-dependent manner |
